“And” between values parts separate entries of the source, which are not always exact repeats. Identical values can stand only once. Like-named read-outs stand apart in the source and are kept apart here. Where a SMILES comes first, the peptide text is derived from it. Where no end group is shown, it is not given here. [ ]: non-standard residue; d: D form. Ala(indol-4-yl) = N[C@@H](Cc1cccc2[nH]ccc12)C(=O)O; NMeR = CN[C@@H](CCCNC(=N)N)C(=O)O; pGlu = O=C1CC[C@@H](C(=O)O)N1; Tle = CC(C)(C)[C@H](N)C(=O)O; dOrn = NCCC[C@@H](N)C(=O)O; Orn = NCCC[C@H](N)C(=O)O; Dab = NCC[C@H](N)C(=O)O
How the values were obtained:
hNTS1 = target: T1, hNTS1 (Homo sapiens, UniProt P30989); assay: Radioligand competition binding with [3H]NT, membranes of CHO-K1 cells expressing hNTS1; conditions: for hNTS1 Selectivity: hNTS1 over hNTS2
T1 construct: expressed in transfected cells; host or cells: CHO-K1
Description: CHO-K1 cells that had been stably transfected separately with the hNTS1 or hNTS2 genes were cultured in 150 mm (500 cm^2) Petri plates with 35 ml of Dulbecco's modified Eagle's medium containing 100 μM minimal essential medium nonessential amino acids (Life Technologies, Inc.) supplemented with 5% (v/v) FetalClone II bovine serum product (Hyclone Labs, Logan, Utah). […] The cellular pellet (in Tris-HCl buffer) was stored at […] until the radioligand binding was performed.
For use in binding assays, crude membrane preparations were prepared by centrifugation of the cellular pellet at 35,600×g for 10 min. The supernatant was decanted and discarded, and the cellular pellet was resuspended in 1 ml of Tris-HCl buffer followed by homogenization with a Brinkmann Polytron at setting 5.5 for 15 s. Centrifugation was repeated as above, the supernatant was decanted and discarded, and the cellular pellet was resuspended in 1 ml of Tris-HCl buffer followed by homogenization. Centrifugation was repeated a third time, the supernatant was discarded, and the final cellular pellet was suspended in 0.5-2.5 ml of Tris-HCl buffer. Protein concentration of the membrane preparation was estimated by the method of Lowry et al. using bovine serum albumin as a standard.
Incubation was at 20° C. for 40 min. The assay was routinely terminated by addition of ice-cold 0.9% NaCl (5×1.5 ml), followed by rapid filtration through a GF/B filter strip that had been pretreated with 0.2% or 2% polyethyleneimine. Details of binding assays have been described previously. […] Data were analyzed using the LIGAND program.

hNTS2 = target: T2, hNTS2 (Homo sapiens, UniProt O95665); assay: Radioligand competition binding with [3H]NT, membranes of CHO-K1 cells expressing hNTS2; conditions: for higher affinity at hNTS2 than the corresponding JMV peptide at mNTS2: NT33 vs JMV 510, NT51 vs JMV 509
T2 construct: expressed in transfected cells; host or cells: CHO-K1

[1] = read-out: hNTS1 Geometric Mean ∀ SEM (equilibrium dissociation constant Kd)
[2] = Table 2, read-out: hNTS2 Geometric Mean ∀ SEM (equilibrium dissociation constant Kd)

T1 sequence (P30989 whole entry): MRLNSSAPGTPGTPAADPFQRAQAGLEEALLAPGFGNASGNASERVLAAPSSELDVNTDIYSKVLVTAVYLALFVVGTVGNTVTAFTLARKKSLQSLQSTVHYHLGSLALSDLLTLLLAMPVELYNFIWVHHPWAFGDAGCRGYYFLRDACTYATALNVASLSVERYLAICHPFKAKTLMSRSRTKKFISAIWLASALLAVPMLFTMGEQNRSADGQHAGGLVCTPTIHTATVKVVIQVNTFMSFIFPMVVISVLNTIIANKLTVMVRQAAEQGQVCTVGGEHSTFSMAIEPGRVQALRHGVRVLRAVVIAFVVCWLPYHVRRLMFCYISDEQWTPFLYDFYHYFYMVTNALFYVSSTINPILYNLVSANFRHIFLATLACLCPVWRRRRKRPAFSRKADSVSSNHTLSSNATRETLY
T2 sequence (O95665 whole entry): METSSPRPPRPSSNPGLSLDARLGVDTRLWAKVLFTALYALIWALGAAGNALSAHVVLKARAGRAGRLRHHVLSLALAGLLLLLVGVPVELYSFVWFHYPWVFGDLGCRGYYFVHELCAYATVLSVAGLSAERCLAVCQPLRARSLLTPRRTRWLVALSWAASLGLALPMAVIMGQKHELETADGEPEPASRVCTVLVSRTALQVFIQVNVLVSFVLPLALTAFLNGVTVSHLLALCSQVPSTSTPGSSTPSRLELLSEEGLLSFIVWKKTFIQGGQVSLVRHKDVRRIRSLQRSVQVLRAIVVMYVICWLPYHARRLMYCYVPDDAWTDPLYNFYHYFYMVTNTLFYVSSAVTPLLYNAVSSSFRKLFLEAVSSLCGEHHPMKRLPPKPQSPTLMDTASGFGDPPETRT

| Compound | hNTS1 Selectivity (hNTS1; Table 2) | Kd (hNTS1; [1]) [nM] | hNTS2 Selectivity (hNTS2; Table 2, hNTS2 over hNTS1) | Kd (hNTS2; [2]) [nM] | also measured |
| --- | --- | --- | --- | --- | --- |
| RRPAIL [NT08, [Ala^11]NT(8-13)] [listing 1 of 2 here] | – | – | – | 58 ± 5 | Kd (hNTS1): 2500 ± 200 nM |
| RRPYVL [NT10, [L-Val^12]NT(8-13)] | 0.8 | – | 1.3 | – | Kd (hNTS1): 11.3 ± 0.6 nM; Kd (hNTS2): 8.8 ± 0.4 nM |
| CC[C@H](C)[C@H](NC(=O)[C@H](Cc1ccc(O)cc1)NC(=O)[C@@H]1CCCN1C(=O)[C@@H](CCCN)NC(=O)[C@H](N)CCCN)C(=O)N[C@@H](CC(C)C)C(=O)O [NT28, [D-Orn^8,D-Orn^9]NT(8-13)] | 3.2 | 600 ± 20 | 0.3 | 1900 ± 100 | – |
| CC[C@H](C)[C@H](NC(=O)[C@H](Cc1ccc(O)cc1)NC(=O)[C@@H]1CCCN1C(=O)[C@H](CCCCN)NC(=O)[C@H](N)CCCNC(=N)N)C(=O)N[C@@H](CC(C)C)C(=O)O [NT15, [D-Arg^8,L-Lys^9]NT(8-13)] (H-[dR]KPYIL-OH; N-terminus and C-terminus assumed) | 4.0 | – | 0.2 | – | Kd (hNTS1): 3.5 ± 0.5 nM; Kd (hNTS2): 18 ± 2 nM |
| CC[C@H](C)[C@H](NC(=O)[C@H](Cc1ccc(O)cc1)NC(=O)[C@@H]1CCCN1C(=O)[C@H](CCN)NC(=O)[C@@H](N)CCN)C(=O)N[C@@H](CC(C)C)C(=O)O [NT31, [DAB^8,DAB^9]NT(8-13)] (H-[Dab][Dab]PYIL-OH; N-terminus and C-terminus assumed) | 9.1 | 2.1 ± 0.3 | 0.1 | 19.5 ± 0.7 | – |
| RRPAIL [NT08, [Ala^11]NT(8-13)] [listing 2 of 2 here] | 0.02 | – | 43 | – | NTS2 Selectivity (hNTS2; Table 3): 43; hNTS2 Selectivity (hNTS2; Table 4): 43 |
| CC[C@H](C)[C@H](NC(=O)[C@H](Cc1ccc(O)cc1)NC(=O)[C@@H]1CCCN1C(=O)[C@H](CCCNC(=N)N)NC(=O)[C@H](N)CCCCN)C(=O)N[C@@H](CC(C)C)C(=O)O [NT02, [D-Lys^8]NT(8-13)] (H-[dK]RPYIL-OH; N-terminus and C-terminus assumed) | 4.6 | – | 0.2 | 4.6 ± 0.5 | – |
| CC[C@H](C)[C@H](NC(=O)[C@H](Cc1ccc(O)cc1)NC(=O)[C@@H]1CCCN1C(=O)[C@H](CCCNC(=N)N)NC(=O)[C@H](N)CCCN)C(=O)N[C@@H](CC(C)C)C(=O)O [NT22, [D-Orn^8]NT(8-13)] (H-[dOrn]RPYIL-OH; N-terminus and C-terminus assumed) | 3.2 | 1.9 ± 0.2 | 0.3 | 5.9 ± 0.2 | – |
| [DAB^9,L-neo-Trp^11]NT(9-13) [NT75] | 2.3 | – | 0.4 | 169 ± 8 | Kd (hNTS1; Table 2, n.d. = no detectable binding at 1 μM, †/* values published before by the same laboratory, read-out: hNTS1 Geometric Mean ∀ SEM (equilibrium dissociation constant Kd)): 73 ± 5 nM |
| CC[C@H](C)[C@H](NC(=O)[C@@H](Cc1ccc2ccccc2c1)NC(=O)[C@@H]1CCCN1C(=O)[C@H](CCCNC(=N)N)NC(=O)[C@@H](N)CCCNC(=N)N)C(=O)N[C@@H](CC(C)C)C(=O)O [NT51, [D-3,2-Nal^11]NT(8-13)] | – | – | – | – | decrease in affinity at NTS2 on changing from L- to D-3,2-Nal (hNTS2; NT33 compared to NT51): < 2 fold; higher affinity at hNTS2 than the corresponding JMV peptide at mNTS2 (hNTS2): 28 fold and ~30 fold; Kd (hNTS2; text, read-out: Kd at hNTS2): 32.9 nM |
| CC[C@H](C)[C@H](NC(=O)[C@H](Cc1ccc(O)cc1)NC(=O)[C@@H]1CCCN1C(=O)[C@H](CCCCN)NC(=O)[C@@H](N)CCCCN)C(=O)N[C@@H](CC(C)C)C(=O)O [NT19, [L-Lys^8,L-Lys^9]NT(8-13)] | – | – | – | – | Kd (hNTS2): 2.4 ± 0.3 nM |
| CC[C@H](C)[C@H](NC(=O)[C@H](Cc1ccc2ccccc2c1)NC(=O)[C@@H]1CCCN1C(=O)[C@H](CCCNC(=N)N)NC(=O)[C@@H](N)CCCNC(=N)N)C(=O)N[C@@H](CC(C)C)C(=O)O [NT33, [L-3,2-Nal^11]NT(8-13)] | – | – | – | 18 ± 1 | higher affinity at hNTS2 than the corresponding JMV peptide at mNTS2 (hNTS2): 12 fold |
| CC[C@H](C)[C@H](NC(=O)[C@H](Cc1ccc(O)cc1)NC(=O)[C@@H]1CCCN1C(=O)[C@@H](CCCCN)NC(=O)[C@H](N)CCCCN)C(=O)N[C@@H](CC(C)C)C(=O)O [NT20, [D-Lys^8,D-Lys^9]NT(8-13)] | – | – | – | – | Kd (hNTS2): 730 ± 60 nM |

Second part, led by results:

| hNTS1 Selectivity (hNTS1; Table 2) | Kd (hNTS1; [1]) [nM] | hNTS2 Selectivity (hNTS2; Table 2, hNTS2 over hNTS1) | Kd (hNTS2; [2]) [nM] | Compound | also measured |
| --- | --- | --- | --- | --- | --- |
| 0.7 | 1.71 ± 0.06 | 1.5 | 1.11 ± 0.03 | CN[C@@H](CCCNC(=N)N)C(=O)N[C@@H](CCN)C(=O)N1CCC[C@H]1C(=O)N[C@@H](Cc1cccc2[nH]ccc12)C(=O)N[C@H](C(=O)N[C@@H](CC(C)C)C(=O)O)C(C)(C)C [NT71, [N-methyl-Arg^8,DAB^9,L-neo-Trp^11,tert-leu^12]NT(8-13)] (H-[NMeR][Dab]P[Ala(indol-4-yl)][Tle]L-OH; N-terminus and C-terminus assumed) | – |
| 0.5 | 17 ± 2 | 2.2 | 8 ± 0.4 | CC[C@H](C)[C@H](NC(=O)[C@H](Cc1c[nH]c2ccccc12)NC(=O)[C@@H]1CCCN1C(=O)[C@H](CCCNC(=N)N)NC(=O)[C@H](N)CCCCN)C(=O)N[C@@H](CC(C)C)C(=O)O [NT67T, [D-Lys^8,L-Trp^11]NT(8-13)] (H-[dK]RPWIL-OH; N-terminus and C-terminus assumed) | – |
| – | – | – | 14 | CC[C@H](C)[C@H](NC(=O)[C@@H]1Cc2ccccc2CN1C(=O)[C@@H]1CCCN1C(=O)[C@H](CCCNC(=N)N)NC(=O)[C@@H](N)CCCNC(=N)N)C(=O)N[C@@H](CC(C)C)C(=O)O [NT47, [L-TIC^11]NT(8-13)] | – |
| – | – | – | 1160 ± 20 | CC[C@H](C)[C@H](NC(=O)[C@@H](Cc1ccc(O)cc1)NC(=O)[C@@H]1CCCN1C(=O)[C@H](CCCN)NC(=O)[C@@H](N)CCCNC(=N)N)C(=O)N[C@@H](CC(C)C)C(=O)O [NT36, [L-Orn^9,D-Tyr^11]NT(8-13)] (H-R[Orn]P[dY]IL-OH; N-terminus and C-terminus assumed) | binding / Kd at hNTS1 in words (hNTS1; text b54): no detectable binding; Kd at hNTS2 in words (hNTS2; text b54): micromolar Kd's |
| 5.4 | 3.2 ± 0.1 | 0.2 | 17 ± 2 | CC[C@H](C)[C@H](NC(=O)[C@H](Cc1ccc(O)cc1)NC(=O)[C@@H]1CCCN1C(=O)[C@H](CCCN)NC(=O)[C@H](CCCNC(=N)N)NC(=O)[C@@H]1CCCN1C(=O)[C@H](CCCCN)NC(=O)[C@H](CC(N)=O)NC(=O)[C@H](CCC(=O)O)NC(=O)[C@H](Cc1ccc(O)cc1)NC(=O)[C@H](CC(C)C)NC(=O)[C@@H]1CCC(=O)N1)C(=O)N[C@@H](CC(C)C)C(=O)O [NT60, [L-Orn^9]NT(1-13)] ([pGlu]LYENKPR[Orn]PYIL-OH; C-terminus assumed) | – |
| 4.0 | 300 ± 50 | 0.3 | 1190 ± 40 | CC[C@H](C)[C@H](NC(=O)[C@H](Cc1ccc(O)cc1)NC(=O)[C@@H]1CCCN1C(=O)[C@@H](N)CCCN)C(=O)N[C@@H](CC(C)C)C(=O)O [NT34, [L-Orn^9]NT(9-13)] (H-[Orn]PYIL-OH; N-terminus and C-terminus assumed) | – |
| 4.4 | 1500 ± 100 | 0.2 | – | CC[C@H](C)[C@H](NC(=O)[C@H](Cc1ccc(O)cc1)NC(=O)[C@@H]1CCCN1C(=O)[C@@H](CCCN)NC(=O)[C@H](CCCNC(=N)N)NC(=O)[C@@H]1CCCN1C(=O)[C@H](CCCCN)NC(=O)[C@H](CC(N)=O)NC(=O)[C@H](CCC(=O)O)NC(=O)[C@H](Cc1ccc(O)cc1)NC(=O)[C@H](CC(C)C)NC(=O)[C@@H]1CCC(=O)N1)C(=O)N[C@@H](CC(C)C)C(=O)O [NT61, [D-Orn^9]NT(1-13)] ([pGlu]LYENKPR[dOrn]PYIL-OH; C-terminus assumed) | Kd (hNTS2; text b54, read-out: Kd at hNTS2): 6600 nM |
| 0.3 | 1500 ± 100 | 3.3 | 460 ± 70 | CC(C)C[C@H](NC(=O)[C@@H](NC(=O)[C@H](Cc1cccc2[nH]ccc12)NC(=O)[C@@H]1CCCN1C(=O)[C@@H](CCCN)NC(=O)[C@@H](N)CCCNC(=N)N)C(C)(C)C)C(=O)O [NT77, [D-Orn^9,L-neo-Trp^11,tert-Leu^12]NT(8-13)] (H-R[dOrn]P[Ala(indol-4-yl)][Tle]L-OH; N-terminus and C-terminus assumed) | hNTS2 Selectivity (hNTS2; Table 4): 3.3 |
| 0.1 | 140 ± 19 | 7.7 | 18.1 ± 0.7 | CC(C)C[C@H](NC(=O)[C@@H](NC(=O)[C@H](Cc1c[nH]c2ccccc12)NC(=O)[C@@H]1CCCN1C(=O)[C@H](CCCNC(=N)N)NC(=O)[C@H](N)CCCCN)C(C)(C)C)C(=O)O [NT66T, [D-Lys^8,L-Trp^11,tert-Leu^12]NT(8-13)] (H-[dK]RPW[Tle]L-OH; N-terminus and C-terminus assumed) | – |
| – | – | – | 255 | CC[C@H](C)[C@H](NC(=O)[C@H]1Cc2ccccc2CN1C(=O)[C@@H]1CCCN1C(=O)[C@H](CCCNC(=N)N)NC(=O)[C@@H](N)CCCNC(=N)N)C(=O)N[C@@H](CC(C)C)C(=O)O [NT48, [D-TIC^11]NT(8-13)] | – |
| – | – | – | 1.28 ± 0.05 | CC[C@H](C)[C@H](NC(=O)[C@H](Cc1cccc2ccccc12)NC(=O)[C@@H]1CCCN1C(=O)[C@H](CCCNC(=N)N)NC(=O)[C@@H](N)CCCNC(=N)N)C(=O)N[C@@H](CC(C)C)C(=O)O [NT49, [L-3,1-Nal^11]NT(8-13)] | – |
